According to patent US6562978B1, “Cyclic amine compounds as CCR5 antagonists” (Takeda Chemical Industries, Ltd., priority 1999, dated 2003):
Counter-ions that a name gives are not always drawn.

Target: T1, human CCR5 (Homo sapiens, UniProt P51681)
T1 construct: expressed in transfected cells; whole cells in the well
Experiment: CCR5 binding assay: inhibition of [125I]-RANTES binding to CHO/CCR5 cells
Conditions: 1.0 μM test compound, 100 pM [125I]-RANTES, room temperature 40 minutes, read-out: Inhibition Rate (%) at 1.0 μM
Description: (1) Cloning of Human CCR5 Chemokine Receptor
Cloning of CCR5 gene was carried out by PCR (polymerase chain reaction) from human spleen cDNA. With using 0.5 ng of spleen cDNA (Toyobo, QUICK-Clone cDNA) as template, PCR was performed in DNA Thermal Cycler 480 (Perkin-Elmer) (reaction conditions: 30 cycles of 95° C. for 1 minute, 60° C. for 1 minute, and 75° C. for 5 minutes) by adding primer set, 5′-[…]-3′ (25 pmol) and 5′-[…]-3′ (25 pmol), which were designed referring to nucleotide sequence of CCR5 gene reported by Samson et al. (Biochemistry, 35(11), 3362-3367 (1996)) and by using TaKaRa EX Taq (Takara Shuzo). The resultant PCR product was subjected to agarose gel electrophoresis to collect about 1.0 kb DNA fragment, which was subjected to Original TA Cloning Kit (Funakoshi) to carry out cloning of CCR5 gene.
(2) Preparation of Plasmid for Expression of Human […]
The plasmid obtained in the above (1) was digested with restriction enzymes XbaI (Takara Shuzo) and BamHI (Takara Shuzo) and subjected to agarose gel electrophoresis to collect about 1.0 kb DNA fragment. The DNA fragment was mixed with plasmid pcDNA3.1 (Funakoshi) for expression in animal cells, said plasmid being digested with XbaI and BamHI, and they were ligated with DNA Ligation Kit Ver.2 (Takara Shuzo). The resulting plasmid was subjected to transformation of competent cell of E. coli JM109 (Takara Shuzo) to obtain plasmid pCKR5.
(3) Introduction of Plasmid for Expression of Human CCR5 into CHO-K1 Cell and Expression of said Plasmid in CHO-KY Cell
CHO-K1 cells were grown in 750 ml of tissue culture flask (Becton Dickinson) using Ham's F12 medium (Nihon Pharmaceutical) containing 10% fetal calf serum (Life Tech Oriental) and took off with 0.5 g/L trypsin-0.2 g/L EDTA (Life Tech Oriental). The cells were washed with PBS (Life Tech Oriental), centrifuged (1000 rpm, 5 minutes), and suspended in PBS. With using Gene Pulser (Bio-Rad Laboratories), DNA was introduced into the cells under the conditions shown below. That is, to the cuvette of 0.4 cm gap were added 8×10^6 cells and 10 μg of plasmid pCKR5 for expression of human CCR5, and electroporation was carried out under 0.25 kV of voltage and […] of capacitance. The cells were transferred into Ham's F12 medium (Nihon Pharmaceutical) containing 10% fetal calf serum, and cultivated for 24 hours. The cells were again took off and centrifuged, and suspended in Ham's F12 medium (Nihon Pharmaceutical) containing 10% fetal calf serum and 500 μg/ml of geneticin (Life Tech Oriental). The suspension was diluted to give 10^4 cells/ml of the suspension, which was inoculated on 96 well plate (Becton Dickinson) to give geneticin resistant cells. The resulting geneticin resistant cells were cultivated in 96 well plate (Becton Dickinson), and cells expressing CCR5 were selected from the geneticin resistant cells. That is, in assay buffer (Ham's F12 medium containing 0.5% BSA and 20 mM HEPES (Wako Pure Chemical, pH7.2) to which was added 200 pM of [^125I]-RANTES (Amersham) as ligand, binding reaction was carried out at room temperature for 40 minutes, and the buffer was washed with cooled PBS. To the buffer was added 50 μl/well of 1M NaOH, and the mixture was stirred. Radioactivity was determined with γ-counter to select CHO/CCR5 cells which specifically bind to the ligand.
(4) Evaluation of Test Compounds Based on CCR5 Antagonistic Activity
The CHO/CCR5 were inoculated on 96 well microplate (5×10^4 cells/well) and cultivated for 24 hours. The medium was removed by means of suction, and to each well was added assay buffer containing Test Compound (191) and then 100 pM of [^125I]-RANTES (Amersham) as ligand. Binding assay was carried out at room temperature for 40 minutes, and assay buffer was removed by means of suction. Each well was washed twice with cooled PBS, and 200 μl of Microscint-20 (Packard Instrument, Inc.) was added to each well.

T1 sequence (P51681 whole entry): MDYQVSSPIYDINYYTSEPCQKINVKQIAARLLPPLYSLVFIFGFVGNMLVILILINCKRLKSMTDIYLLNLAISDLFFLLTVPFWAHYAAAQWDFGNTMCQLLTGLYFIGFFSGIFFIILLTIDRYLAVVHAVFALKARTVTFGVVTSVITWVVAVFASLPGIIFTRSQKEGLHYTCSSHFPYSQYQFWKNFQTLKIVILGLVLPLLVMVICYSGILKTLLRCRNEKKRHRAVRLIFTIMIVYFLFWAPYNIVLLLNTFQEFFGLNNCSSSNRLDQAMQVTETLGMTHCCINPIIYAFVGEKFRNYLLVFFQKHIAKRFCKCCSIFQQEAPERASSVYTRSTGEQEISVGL

Structure (SMILES)	inhibition at 1 µM [%]
Cc1ccc(N(CCCN2CCC(Cc3ccc(C(N)=O)cc3)CC2)C(=O)C2CCN(S(C)(=O)=O)CC2)cc1Cl [Example 470, N-(3-{4-[4-(Aminocarbonyl)benzyl]-1-piperidinyl}propyl)-N-(3-chloro-4-methylphenyl)-1-(methylsulfonyl)-4-piperidinecarboxamide]	99
CC(=O)N1CCC(C(=O)N(CCCN2CCC(Cc3ccc(C(N)=O)cc3)CC2)c2ccc(C)c(Cl)c2)CC1 [Example 376, 1-Acetyl-N-(3-{4-[4-(aminocarbonyl)benzyl]-1-piperidinyl}propyl)-N-(3-chloro-4-methylphenyl)-4-piperidinecarboxamide]	97
CS(=O)(=O)N1CCC(NC(=O)N(CCCN2CCC(Cc3ccccc3)CC2)c2ccccc2)CC1 [Example 15, N-[3-(4-Benzyl-1-piperidinyl)propyl]-N′-[1-(methylsulfonyl)-4-piperidinyl]-N-phenylurea]	97
CS(=O)(=O)N1CCC(C(=O)N(CCCN2CCC(Cc3ccc(N4CCOCC4)cc3)CC2)c2ccc(Cl)c(Cl)c2)CC1 [Example 292, N-(3,4-Dichlorophenyl)-1-(methylsulfonyl)-N-{3-[4-(4-morpholinobenzyl)-1-piperidinyl]propyl}-4-piperidinecarboxamide]	97
CC(=O)N1CCC(C(=O)N(CCCN2CCC(Cc3nccs3)CC2)c2cccc(Cl)c2)CC1 [Example 168, 1-Acetyl-N-(3-chlorophenyl)-N-{3-[4-(2-thiazolylmethyl)-1-piperidinyl]propyl}-4-piperidinecarboxamide Ditrifluoroacetate]	82
CS(=O)(=O)N1CCC(C(=O)N(CCCN2CCC(Cn3cnc4ccccc43)CC2)c2ccc(Cl)c(Cl)c2)CC1 [Example 261, N-{3-[4-(1H-Benzimidazol-1-ylmethyl)-1-piperidinyl]propyl}-N-(3,4-dichlorophenyl)-1-methylsulfonyl-4-piperidinecarboxamide]	98
CC(=O)N1CCC(C(=O)N(CCCN2CCC(C#N)(Cc3ccccc3)CC2)c2cccc(Cl)c2)CC1 [Example 291, 1-Acetyl-N-[3-(4-benzyl-4-cyano-1-piperidinyl)propyl]-N-(3-chlorophenyl)-4-piperidinecarboxamide]	84
CCN(C1CCN(CCCN(C(=O)C2CCN(S(C)(=O)=O)CC2)c2ccc(Cl)c(Cl)c2)CC1)S(=O)(=O)c1ccc(S(C)(=O)=O)cc1 [Example 341, N-(3,4-Dichlorophenyl)-N-{3-[4-(ethyl{[4-(methylsulfonyl)phenyl]sulfonyl}amino)-1-piperidinyl]propyl}-1-(methylsulfonyl)-4-piperidinecarboxamide]	98
CC(=O)Nc1ccc(C(=O)N2CCC(C(=O)N(CCCN3CCC(Cc4ccc(F)cc4)CC3)c3ccc(Cl)c(Cl)c3)CC2)cc1 [Example 158, 1-[4-(Acetylamino)benzoyl]-N-(3,4-dichlorophenyl)-N-{3-[4-(4-fluorobenzyl)-1-piperidinyl]propyl}-4-piperidinecarboxamide Trifluoroacetate]	97
CS(=O)(=O)N1CCC(C(=O)N(CCCN2CCC(Cc3ccc(S(N)(=O)=O)cc3)CC2)c2ccc(Cl)c(Cl)c2)CC1 [Example 244, N-(3-{4-[4-(Aminosulfonyl)benzyl]-1-piperidinyl}propyl)-N-(3,4-dichlorophenyl)-1-(methylsulfonyl)-4-piperidinecarboxamide]	100
CCS(=O)(=O)c1ccc(CC2CCN(CCCN(C(=O)C3CCN(S(C)(=O)=O)CC3)c3cccc(Cl)c3)CC2)cc1 [Example 413, N-(3-Chlorophenyl)-N-(3-{4-[4-(ethylsulfonyl)benzyl]-1-piperidinyl}propyl)-1-(methylsulfonyl)-4-piperidinecarboxamide Hydrochloride]	99
CC(=O)N1CCC(C(=O)N(CCCN2CCC(S(=O)(=O)c3ccc(F)cc3)CC2)c2ccc(Cl)c(Cl)c2)CC1 [Example 189, 1-Acetyl-N-(3,4-dichlorophenyl)-N-{3-[4-(4-fluorophenylsulfonyl)-1-piperidinyl]propyl}-4-piperidinecarboxamide]	100
CS(=O)(=O)Nc1ccc(CC2CCN(CCCN(C(=O)C3CCN(S(C)(=O)=O)CC3)c3ccc(Cl)c(Cl)c3)CC2)cc1 [Example 313-2, N-(3,4-Dichlorophenyl)-1-(methylsulfonyl)-N-[3-(4-{4-[(methylsulfonyl)amino]benzyl}-1-piperidinyl)propyl]-4-piperidinecarboxamide]	97
CS(=O)(=O)N1CCC(C(=O)N(CCCN2CCC(Cc3ccc(-n4cnnn4)cc3)CC2)c2ccc(Cl)c(Cl)c2)CC1 [Example 309, N-(3,4-Dichlorophenyl)-1-(methylsulfonyl)-N-(3-{4-[4-(1H-tetrazol-1-yl)benzyl]-1-piperidinyl}propyl)-4-piperidinecarboxamide]	92
CC(=O)N1CCC(C(=O)N(CCCN2CCC(Cc3ccc(S(N)(=O)=O)cc3)CC2)c2ccc(Cl)c(Cl)c2)CC1 [Example 243, 1-Acetyl-N-(3-{4-[4-(aminosulfonyl)benzyl]-1-piperidinyl}propyl)-N-(3,4-dichlorophenyl)-4-piperidinecarboxamide]	99
Cc1cc(NS(=O)(=O)c2ccc(CC3CCN(CCCN(C(=O)C4CCN(S(C)(=O)=O)CC4)c4ccc(Cl)c(Cl)c4)CC3)cc2)no1 [Example 372, N-(3,4-Dichlorophenyl)-N-{3-[4-(4-{[(5-methyl-3-isoxazolyl)amino]sulfonyl}benzyl)-1-piperidinyl]propyl}-1-(methylsulfonyl)-4-piperidinecarboxamide]	97
CC(=O)N1CCC(C(=O)N(CCCN2CCC(Nc3ccc(C#N)cc3)CC2)c2ccc(Cl)c(Cl)c2)CC1 [Example 211, 1-Acetyl-N-{3-[4-(4-cyanoanilino)-1-piperidinyl]propyl}-N-(3,4-dichlorophenyl)-4-piperidinecarboxamide]	90
CC(=O)N1CCC(C(=O)N(CCCN2CCC(Cc3ccccc3)CC2)Cc2ccc(Cl)cc2)CC1 [Example 40, 1-Acetyl-N-[3-(4-benzyl-1-piperidinyl)propyl]-N-(4-chlorobenzyl)-4-piperidinecarboxamide Trifluoroacetate]	98
CC(=O)N1CCC(C(=O)N(CCCN2CCC(Cc3ccccc3)CC2)c2ccccc2)CC1 [Example 3, 1-Acetyl-N-[3-(4-benzyl-1-piperidinyl)propyl]-N-phenyl-4-piperidinecarboxamide]	98
CS(=O)(=O)N1CCC(C(=O)N(CCCN2CCC(Cc3ccc(S(=O)(=O)N4CCOCC4)cc3)CC2)c2ccc(Cl)c(Cl)c2)CC1 [Example 356, N-(3,4-Dichlorophenyl)-1-(methylsulfonyl)-N-(3-{4-[4-(4-morpholinylsulfonyl)benzyl]-1-piperidinyl}propyl)-4-piperidinecarboxamide]	100
CS(=O)(=O)N1CCC(C(=O)N(CCCN2CCC(S(=O)(=O)c3ccc(F)cc3)CC2)c2ccc(Cl)c(Cl)c2)CC1 [Example 190, N-(3,4-Dichlorophenyl)-N-{3-[4-(4-fluorophenylsulfonyl)-1-piperidinyl]propyl}-1-(methylsulfonyl)-4-piperidinecarboxamide]	100
